Results published in patent US11059808B2, “Substituted phenylpyrrolecarboxamides with therapeutic activity in HIV” (New York Blood Center, Inc., priority 2014, dated 2021).
Read-outs that look alike come from different tables or passages of the source.

Key:
[1] = molecular target: T1, HIV-1 Integrase (Human immunodeficiency virus type 1 group M subtype B, UniProt P04585); experiment: HIV-1 Integrase Assay (ExpressBio kit); assay type: biochemical
T1 construct: HIV-1 Integrase Assay Kit from ExpressBio; purchased ExpressBio (Thurnmont, Md.)
Experimental: HIV-1 Integrase was performed as per the protocol in the HIV-1 Integrase Assay Kit from ExpressBio (Thurnmont, Md.). (See Table 3)

[2] = system: panel of HIV-1 ENV-pseudoviruses (subtype A, A/D, A2/D, A/E, A/G, B, C and D); experiment: microbe, parasite or virus in culture; assay type: cell-based
[3] = system: TZM-bl cells; experiment: Cytotoxicity in TZM-bl cells (XTT); assay type: cell-based; conditions: for CC50: XTT, 3 days
Experimental: (§1) The cytotoxicity of test compounds in TZM-bl cells was also measured by the XTT method described previously^7. […] The soluble intracellular formazan was quantitated colorimetrically at 450 nm 4 h later. The percent of cytotoxicity and the CC50 values were calculated as above. (See Table 4)

[4] = system: HIV-1 pseudovirus pseudotyped with HXB2 Env; experiment: microbe, parasite or virus in culture; assay type: cell-based; conditions: single cycle assay, TZM-bl cells infected with HIV-1 pseudovirus pseudotyped with HXB2 Env;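 note: endpoint is IC50 for inhibition of pseudovirus infection of TZM-bl cells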
[5] = Cytotoxicity in TZM-bl cells (XTT); assay type: cell-based; conditions: human, XTT, 3 days
Experimental: as §1

[6] = system: cell-to-cell fusion mediated by HIV-1 (HIV-1HXB2 Env); assay type: cell-based; conditions: Cell-Cell fusion Assay
[7] = system: PBMC; experiment: Cytotoxicity in PBMC (XTT); assay type: cell-based; conditions: 7 days
Experimental: For the PBMC toxicity assay we used 5×10^5 cells/ml and the cytotoxicity of the compounds was measured after 7 days of incubation as previously reported^8. Following the addition of XTT the soluble intracellular formazan was quantitated colorimetrically at 450 nm 4 h later. The percent of cytotoxicity and the CC50 values were calculated as above. (See Table 4)

[8] = system: laboratory-adapted HIV-1 strains; experiment: Multi-cycle infection assay in MT-2 cells (p24 ELISA); conditions: read-out: IC50 (μm)
Experimental: The inhibitory activity of test compounds on infection by laboratory-adapted HIV-1 strains was determined as previously described^6. Briefly, 1×10^4 MT-2 cells were infected with HIV-1IIIB and other lab-adapted HIV-1 at 100 TCID50 (0.01 MOI) in the presence or absence of test compounds at graded concentrations overnight. The culture supernatants were then removed and fresh media were added. On the fourth day post-infection, 100 μl of culture supernatants were collected from each well, mixed with equal volume of 5% Triton X-100 and tested for p24 antigen by “sandwich” ELISA.

[9] = system: MT-2 cells; experiment: Cytotoxicity in MT-2 cells (XTT); assay type: cell-based; conditions: 4 days
Experimental: Cytotoxicity of test compounds in MT-2 cells was measured a by colorimetric method using XTT [(sodium 3′-(1-(phenylamino)-carbonyl)-3,4-tetrazolium-bis(4-methoxy-6-nitro) bezenesulfonic acid hydrate)] (PolySciences) as previously described^7. Briefly, 100 μl of a test compound at graded concentrations was added to an equal volume of cells (1×10^5 cells/ml) in 96 well plates followed by incubation at 37° C. for 4 days, which ran parallel to the neutralization assay in MT-2. Following the addition of XTT the soluble intracellular formazan was quantitated colorimetrically at 450 nm 4 h later. […] (See Table 4)

[10] = system: lab-adapted and primary HIV-1 isolates; experiment: Multi-cycle infection assay in PBMC (p24 ELISA)
Experimental: PBMCs were isolated from the blood of healthy donors at the New York Blood Center by standard density gradient centrifugation using Histopaque-1077 (Sigma-Aldrich). The cells were cultured at 37° C. for 2 hr. […] The PHA-stimulated cells (5×10^4 cells/well) were infected with lab-adapted and primary HIV-1 isolates at 500 TCID50 (0.01 MOI) in the absence or presence of inhibitors at graded concentrations. Culture media were replaced every 3 days with fresh media. The supernatants were collected 7 days post-infection and tested for p24 antigen by ELISA. The percent inhibition of p24 production and IC50 values were calculated by the GraphPad Prism software.

[11] = Human immunodeficiency virus 1, TZM-bl, read-out: IC50 (μM) ± S.D., subtype A2/D, NIH # 11905, ENV QG393.60M.ENV.A1
[12] = Human immunodeficiency virus 1, HXB2, TZM-bl
[13] = RT-resistant isolate AZT-R, subtype B, MT-2, co-receptor X4
[14] = fusion resistant isolate pNL4-3 gp41(36G) V38E, N42S, subtype B, MT-2, co-receptor X4
[15] = laboratory strain MN, subtype B, MT-2, co-receptor X4
[16] = laboratory strain SF2, subtype B, MT-2, co-receptor R5X4
[17] = protease resistant isolate HIV-1RF/L-323-12-3, subtype B, MT-2, co-receptor X4
[18] = read-out: IC50 (μm), laboratory strain BaL, subtype B, co-receptor R5
[19] = read-out: IC50 (μm), laboratory strain SF162, subtype B, co-receptor R5
[20] = read-out: IC50 (μm), primary isolate 92US657, subtype B, co-receptor R5
[21] = read-out: IC50 (μm), primary isolate 93MW959, subtype C, co-receptor R5
[22] = read-out: IC50 (μm), primary isolate RU570, subtype G, co-receptor R5

## Cc1nc(C(NC(=O)c2ccc(-c3ccc(Cl)cc3)[nH]2)C2CCCCN2)sc1CO (single isomer, unassigned) [Compound 17]
[1]
  IC50: > 100 µM
[2]; [11]
  IC50: 0.41 ± 0.2 µM

## Cc1nc(C(CN)NC(=O)c2ccc(-c3ccc(Cl)c(F)c3)[nH]2)sc1CO (single isomer, unassigned) [Compound 41]
[1]
  IC50: > 100 µM
[2]; Human immunodeficiency virus 1, TZM-bl, read-out: IC50 (μM) ± S.D., subtype C, NIH # 11312, ENV ZM249M.PL1
  IC50: 1 µM
[3]
  CC50: ≥ 33 µM

## NCC(NC(=O)c1ccc(-c2ccc(Cl)c(F)c2)[nH]1)c1ncc(CO)s1 (single isomer, unassigned) [Compound 90]
[1]
  IC50: > 100 µM
[3]
  CC50: 37.4 ± 0.3 µM

## Cc1ccc(-c2ccc(C(=O)NC(CN)c3ncc(CO)s3)[nH]2)cc1F (single isomer, unassigned) [Compound 99]
[2]; Human immunodeficiency virus 1, TZM-bl, read-out: IC50 (μM) ± S.D., subtype A, ENV KNH1144
  IC50: 1.1 ± 0.2 µM
[2]; subtype A, ENV BG505-T332N, read-out: IC50 (μM) ± S.D.
  IC50: 0.99 ± 0.1 µM
[3]
  CC50: 38.8 ± 0.8 µM

## COc1cc(C(=O)NC(CN)c2nc(C)c(CO)s2)[nH]c1-c1ccc(Cl)cc1 (single isomer, unassigned) [Compound 105]
[4]; [12]
  IC50: 8.8 ± 0.5 µM
[5]
  CC50 at 3 days: 16.7 ± 0.1 µM

## Cc1nc(C(NC(=O)c2ccc(-c3ccc(Cl)cc3)[nH]2)C(C)(C)N)sc1CO (single isomer, unassigned) [Compound 109]
[4]; [12]
  IC50: 1.4 ± 0.5 µM
[5]
  CC50 at 3 days: 22.1 ± 1.8 µM

## Cc1nc(C(NC(=O)c2ccc(-c3ccc(Cl)c(F)c3)[nH]2)C(C)(C)N)sc1CO (single isomer, unassigned) [Compound 111]
[4]; [12]
  IC50: 0.44 ± 0.03 µM
[5]
  CC50 at 3 days: 14 ± 0.4 µM

## Cc1ccc(-c2ccc(C(=O)NC(c3nc(C)c(CO)s3)C(C)(C)N)[nH]2)cc1F (single isomer, unassigned) [Compound 113]
[4]
  IC50: 1.1 ± 0.1 µM
[5]
  CC50 at 3 days: 17.1 ± 0.6 µM

## CNCC(NC(=O)c1ccc(-c2ccc(C)c(F)c2)[nH]1)c1ncc(CO)s1 (single isomer, unassigned) [Compound 118]
[4]
  IC50: 2 ± 0.3 µM
[5]
  CC50 at 3 days: 21 ± 0.8 µM

## NCC(NC(=O)c1ccc(-c2cc(F)c(Cl)c(F)c2)[nH]1)c1ncc(CO)s1 (single isomer, unassigned) [Compound 120]
[2]; [11]
  IC50: 1 ± 0.06 µM
[3]
  CC50: 31.4 ± 1.1 µM

## Cc1nc(C(CN)NC(=O)c2ccc(-c3ccc(F)c(F)c3)[nH]2)sc1CO (single isomer, unassigned) [Compound 121]
[4]; [12]
  IC50: 3.4 ± 0.7 µM
[3]; printed "(30%)" without explanation, presumably toxicity at 51 μM
  percentage in brackets after CC50 >51: 30%
[5]
  CC50 at 3 days: > 51 µM

## CC(C)(N)C(NC(=O)c1ccc(-c2ccc(Cl)c(F)c2)[nH]1)c1ncc(CO)s1 (single isomer, unassigned) [Compound 123]
[4]; [12]
  IC50: 0.56 ± 0.03 µM
[5]
  CC50 at 3 days: 14.5 ± 2 µM

## Cc1ccc(-c2ccc(C(=O)NC(c3ncc(CO)s3)C(C)(C)N)[nH]2)cc1F (single isomer, unassigned) [Compound 125]
[4]; [12]
  IC50: 0.63 ± 0.03 µM
[5]
  CC50 at 3 days: 32.5 ± 0.3 µM

## COc1ccc(-c2ccc(C(=O)NC(CN)c3ncc(CO)s3)[nH]2)cc1OC (single isomer, unassigned) [Compound 129]
[4]; [12]
  IC50: > 74.5 µM
[5]
  CC50 at 3 days: > 74.5 µM

## COc1ccnc2[nH]cc(C(=O)C(=O)N3CCN(C(=O)c4ccccc4)C[C@H]3C)c12 [BMS-378806]
[6]
  IC50: 0.014 µM

## Cc1nc(C(NC(=O)C(=O)Nc2ccc(Cl)cc2)C2CCCCN2)sc1CO (stereo not drawn) [NBD-09027]
[7]
  CC50: > 160 µM
[8]; [13]
  IC50: 4.4 ± 1.1 µM
[8]; [14]
  IC50: 5.8 ± 0.3 µM
[8]; laboratory strain IIIB, subtype B, MT-2, co-receptor X4
  IC50: 4.7 ± 0.6 µM
[8]; [15]
  IC50: 4 µM
[8]; [16]
  IC50: 5.7 ± 0.9 µM
[8]; [17]
  IC50: 14.7 ± 2.3 µM
[9]
  CC50: > 108 µM
[10]; [18]
  IC50: 35.8 ± 1.2 µM
[10]; [19]
  IC50: 12.7 ± 0.7 µM
[10]; [20]
  IC50: 8.6 ± 0.9 µM
[10]; read-out: IC50 (μm), primary isolate 93IN101, subtype C, co-receptor R5
  IC50: > 87 µM
[10]; [21]
  IC50: > 43.5 µM
[10]; read-out: IC50 (μm), primary isolate BCF02, (Group 0), co-receptor R5
  IC50: ~87 µM
[10]; [22]
  IC50: 8.5 ± 0.8 µM

## NBD-556
[7]
  CC50: > 280 µM
[8]; [13]
  IC50: 58 ± 14.3 µM
[8]; [14]
  IC50: 11 µM
[8]; [15]
  IC50: 15.9 ± 1.6 µM
[8]; laboratory strain RF, subtype B, MT-2, co-receptor R5X4
  IC50: 18.7 ± 1.3 µM
[8]; [16]
  IC50: ≥ 118 µM
[8]; [17]
  IC50: > 59 µM
[1]
  IC50: > 200 µM
[9]
  CC50: > 280 µM
[10]; read-out: IC50 (μm), laboratory strain 89.6, subtype B, co-receptor R5X4
  IC50: 4.8 ± 1 µM
[10]; [18]
  IC50: ≥ 118 µM
[10]; [19]
  IC50: 48.9 ± 7.3 µM
[10]; [20]
  IC50: 48 ± 1.65 µM
[10]; [21]
  IC50: 57.2 ± 8.7 µM
[10]; read-out: IC50 (μm), primary isolate 93TH060, subtype E, co-receptor R5
  IC50: > 45 µM
[10]; [22]
  IC50: 19.5 ± 2.3 µM
